Reference: US20110021776A1, “COMPOSITIONS FOR THE TREATMENT OF CENTRAL NERVOUS SYSTEM DISEASES AND DISORDERS” (MediProPharma, Inc., priority 2006, published 2011)
Values joined by “and” are separate entries in the source; they are usually repeats but may differ in a detail not shown here. Equal entries are not always repeated. Where two headings read alike, the source gives them in different places. Marks after values point to notes of the source that are not given here.

Key:
[1] = Plasma pharmacokinetics, single dose in rats; format: in vivo, Sprague-Dawley rats; settings: normal rats; for MRT inf: read-out: MRT0-inf; for MRT last: read-out: MRT0-last; for Vd: read-out: Vdss
Description: (§1) (IV) Pharmacokinetic Studies
(§2) The pharmacokinetic studies in Sprague-Dawley rats were performed using the protocols developed by WuXi AppTec (St. Paul, Minn., USA, and Shanghai, China. http://www.apptecls.com/).

[2] = Brain/plasma pharmacokinetics, single i.v. bolus in rats; format: in vivo, Sprague-Dawley rats; settings: 10 mg/kg bolus i.v., normal rats; for Kp / concentration at 0.25 h / concentration at 1 h / concentration at 4 h: intravenous; for Kp: read-out: BAUC/PAUC Ratio; for AUC(0-t): read-out: AUC0-t of Plasma
Description: as §1, §2
The brain exposure of the compound of Example 1 is about […] higher than that required for inhibition of DYRK1A, with a Kd and IC50 at about 1 uM, or 280 ng/mL.

human DYRK1A [3] = molecular target: T1, human DYRK1A (Homo sapiens, UniProt Q13627); assay: Human DYRK1A kinase functional assay (CEREP, LANCE detection); format: biochemical; set-up: CEREP (France), contract assay provider
Description: (II) Human DYRK1A Kinase Functional Assay and IC50 Measurements.
Compound profiling in a human DYRK1A kinase functional assay was performed by CEREP (France). The effects of compounds on the activity of human DYRK1A were evaluated and quantified by measuring the phosphorylation of the substrate Ulight-CFFKNIVTPRTPPPSQGK-amide (MBP) using a human recombinant enzyme and the LANCE® detection method, as described by Himpel et al, J. Biol. Chem., 275: 2431 (2000). The inhibitory activity of the compounds was expressed as a percent inhibition of the control kinase activity. Activities of the compounds at 50% or higher inhibition were selected for IC50 determination. Compounds were tested at 6 concentrations in duplicate for IC50 determination. The standard inhibitory reference compound was staurosporine, which was tested in each experiment at 8 concentrations to obtain an inhibition curve from which its IC50 value was calculated.
In certain embodiments, compounds have a low IC50 value in the DYRK1A kinase functional assay. […] The human DYRK1A kinase functional assay has been used to test the compounds of the Examples disclosed.

human DYRK1A [4] = molecular target: T1, human DYRK1A; assay: Human DYRK1A kinase competitive binding assay (Ambit Biosciences); set-up: Ambit Biosciences (San Diego, Calif., USA), contract assay provider
Description: (I) Human DYRK1A Kinase Binding Assay and Binding Constant Measurements. Human DYRK1A kinase profiles in a competitive binding assay were performed by Ambit Biosciences (San Diego, Calif., USA). Activity was recorded via a competition binding assay of human DYRK1A kinase that was fused to a proprietary tag. Measurements of the amount of DYRK1A kinase bound to an immobilized, active-site directed ligand in the presence and absence of the test compound provided a percentage of DMSO control for binding of ligand. Activities between 1% and 10% were selected for Kd determination. Dendrogram representations were generated by an in-house visualization tool designated as PhyloChem. In certain embodiments, compounds have a low Kd value in the DYRK1A kinase binding assay. […] The human DYRK1A kinase binding assay has been used to test the compounds of the Examples disclosed.

[5] = Sprague-Dawley, rat, iv, i.v. 2 mg/kg, plasma
[6] = Sprague-Dawley, rat, iv, i.v. 10 mg/kg, plasma
[7] = Sprague-Dawley, rat, plasma, iv, i.v. 2 mg/kg
[8] = Sprague-Dawley, rat, plasma, iv, i.v. 10 mg/kg
[9] = Sprague-Dawley, rat, po, p.o. 10 mg/kg, plasma

With Cc1nc2c(c3c1[nH]c1ccccc13)C(=O)CC(C)(C)C2 [Example 1, 3,3,6-trimethyl-2,3,4,7-tetrahydroindolo[2,3-c]quinolin-1-one] the AUC(0-inf) [1, 5] was 316 ng·h/mL, the AUC(0-t) [1, 5] was 312 ng·h/mL and the half-life [1, 5] was 22.2 min. The MRT inf [1, 5] was 21.9 min, the MRT last [1, 5] was 19.9 min and the AUC(0-inf) [1, 6] was 2350 ng·h/mL. The AUC(0-t) [1, 6] was 2280 ng·h/mL, the half-life [1, 6] was 45.9 min and the MRT inf [1, 6] was 53.6 min. The MRT last [1, 6] was 46.4 min, the clearance [1, 7] was 106 mL/min/kg and the Vd [1, 7] was 2.31 L/kg. The clearance [1, 8] was 71.1 mL/min/kg, the Vd [1, 8] was 3.81 L/kg and the bioavailability ([1]; Sprague-Dawley, rat, plasma, po, p.o. 10 mg/kg, calculated using AUC0-inf, read-out: F (absolute oral bioavailability)) was 34%. It also gave an AUC(0-inf) [1, 9] of 544 ng·h/mL, an AUC(0-t) [1, 9] of 541 ng·h/mL and a Cmax [1, 9] of 1860 ng/mL. For the same molecule, the Tmax [1, 9] was 15 min, the half-life [1, 9] was 49.3 min and the MRT inf [1, 9] was 39.3 min. It also gave an MRT last [1, 9] of 36.6 min, an AUCExtra ([1]; i.v. 2 mg/kg, plasma) of 1.49% and a Co ([1]; i.v. 2 mg/kg, plasma) of 1665 ng/mL. For the same molecule, the CL0-last ([1]; i.v. 10 mg/kg) was 73.1 mL/min/kg, the Vdss0-last ([1]; i.v. 10 mg/kg) was 3.39 L/kg and the Co ([1]; i.v. 10 mg/kg, plasma) was 4100 ng/mL. The AUCExtra ([1]; p.o. 10 mg/kg, plasma) was 0.672%, the “AUC0-t of Brain” value ([2]; t = 0.25 h) was 2409 ng·h/g and the “AUC0-t of Brain” value ([2]; t = 1 h) was 4727 ng·h/g. The “AUC0-t of Brain” value ([2]; t = 4 h) was 5924 ng·h/g, the “AUC0-t of Brain” value ([2]; t = 8 h, the data is the value of AUC(inf)) was 6020^b ng · h/g and the “AUC0-t of Brain” value ([2]; t = 24 h, the data is the value of AUC(inf)) was 6020^b ng · h/g. The Kp ([2]; Sprague-Dawley, rat, brain and plasma, 10 mg/kg, t = 0.25 h, BrainAUC(0-t)/PlasmaAUC(0-t)) was 3.04, the Kp ([2]; Sprague-Dawley, rat, brain and plasma, 10 mg/kg, t = 1 h, BrainAUC(0-t)/PlasmaAUC(0-t)) was 2.81 and the Kp at 0.25 h ([2]; Sprague-Dawley, rat, brain and plasma, iv, 10 mg/kg, time 0.25 h, read-out: Brain/Plasma Ratio) was 2.89. It also gave a Kp at 1 h ([2]; Sprague-Dawley, rat, brain and plasma, iv, 10 mg/kg, time 1 h, read-out: Brain/Plasma Ratio) of 2.17, a Kp ([2]; Sprague-Dawley, rat, brain, 10 mg/kg, t = 4 h, BrainAUC(0-t)/PlasmaAUC(0-t)) of 2.6 and a Kp ([2]; Sprague-Dawley, rat, brain, 10 mg/kg, t = 8 h) of 2.56. The Kp ([2]; Sprague-Dawley, rat, brain, 10 mg/kg, t = 24 h) was 2.56, the concentration at 0.25 h ([2]; Sprague-Dawley, rat, brain, time 0.25 h, read-out: Mean concentration in brain) was 6900 ng/mL and the concentration at 1 h ([2]; Sprague-Dawley, rat, brain, time 1 h, read-out: Mean concentration in brain) was 1030 ng/mL. For the same molecule, the concentration at 4 h ([2]; Sprague-Dawley, rat, brain, time 4 h, read-out: Mean concentration in brain) was 99.4 ng/mL, the Kp at 4 h ([2]; Sprague-Dawley, rat, brain, iv, 10 mg/kg, time 4 h, read-out: Brain/Plasma Ratio) was 1.69 and the concentration at 0.25 h ([2]; Sprague-Dawley, rat, plasma, time 0.25 h, read-out: Mean concentration in plasma) was 2390 ng/mL. The concentration at 1 h ([2]; Sprague-Dawley, rat, plasma, time 1 h, read-out: Mean concentration in plasma) was 476 ng/mL, the concentration at 4 h ([2]; Sprague-Dawley, rat, plasma, time 4 h, read-out: Mean concentration in plasma) was 58.7 ng/mL and the AUC(0-t) ([2]; Sprague-Dawley, rat, plasma, iv, 10 mg/kg, t = 0.25 h) was 792 ng·h/mL. It also gave an AUC(0-t) ([2]; Sprague-Dawley, rat, plasma, iv, 10 mg/kg, t = 1 h) of 1680 ng·h/mL, an AUC(0-t) ([2]; Sprague-Dawley, rat, plasma, iv, 10 mg/kg, t = 4 h) of 2280 ng·h/mL and an AUC(0-t) ([2]; Sprague-Dawley, rat, plasma, iv, 10 mg/kg, t = 8 h, the data is the value of AUC(inf)) of 2350 ng·h/mL. The AUC(0-t) ([2]; Sprague-Dawley, rat, plasma, iv, 10 mg/kg, t = 24 h, the data is the value of AUC(inf)) was 2350 ng·h/mL, the melting point was 178.3 to 180.7 °C and the IC50 (human DYRK1A [3]) was < 2000 nM and ~1000 nM. For the same molecule, the Kd (human DYRK1A [4]) was < 10000 nM and < 1000 nM and ~1000 nM.
